Results reported in ChEMBL document CHEMBL3638862, “Radiolabeled PDE10 inhibitors” (2014).
pKi: −log10 of the molar value.

Molecular target: cAMP and cAMP-inhibited cGMP 3',5'-cyclic phosphodiesterase 10A (Homo sapiens, UniProt Q9Y233)
Experiment: Florescence Polarization Assay: The activity of the compounds in accordance with the present invention as PDE10 inhibitors may be readily determined without undue experimentation using a fluorescence polarization (FP) methodology well known in the art (Huang, W., et al., J. Biomol Screen, 2002, 7: 215). […] PDE10A2 was amplified from human fetal brain cDNA (Clontech, Mountain View, Calif.) using a forward primer corresponding to nucleotides 56-77 of human PDE10A2 (Accession No. AF127480, Genbank Identifier 4894716), containing a Kozak consensus sequence.

cAMP and cAMP-inhibited cGMP 3',5'-cyclic phosphodiesterase 10A, sequence (Q9Y233 whole entry): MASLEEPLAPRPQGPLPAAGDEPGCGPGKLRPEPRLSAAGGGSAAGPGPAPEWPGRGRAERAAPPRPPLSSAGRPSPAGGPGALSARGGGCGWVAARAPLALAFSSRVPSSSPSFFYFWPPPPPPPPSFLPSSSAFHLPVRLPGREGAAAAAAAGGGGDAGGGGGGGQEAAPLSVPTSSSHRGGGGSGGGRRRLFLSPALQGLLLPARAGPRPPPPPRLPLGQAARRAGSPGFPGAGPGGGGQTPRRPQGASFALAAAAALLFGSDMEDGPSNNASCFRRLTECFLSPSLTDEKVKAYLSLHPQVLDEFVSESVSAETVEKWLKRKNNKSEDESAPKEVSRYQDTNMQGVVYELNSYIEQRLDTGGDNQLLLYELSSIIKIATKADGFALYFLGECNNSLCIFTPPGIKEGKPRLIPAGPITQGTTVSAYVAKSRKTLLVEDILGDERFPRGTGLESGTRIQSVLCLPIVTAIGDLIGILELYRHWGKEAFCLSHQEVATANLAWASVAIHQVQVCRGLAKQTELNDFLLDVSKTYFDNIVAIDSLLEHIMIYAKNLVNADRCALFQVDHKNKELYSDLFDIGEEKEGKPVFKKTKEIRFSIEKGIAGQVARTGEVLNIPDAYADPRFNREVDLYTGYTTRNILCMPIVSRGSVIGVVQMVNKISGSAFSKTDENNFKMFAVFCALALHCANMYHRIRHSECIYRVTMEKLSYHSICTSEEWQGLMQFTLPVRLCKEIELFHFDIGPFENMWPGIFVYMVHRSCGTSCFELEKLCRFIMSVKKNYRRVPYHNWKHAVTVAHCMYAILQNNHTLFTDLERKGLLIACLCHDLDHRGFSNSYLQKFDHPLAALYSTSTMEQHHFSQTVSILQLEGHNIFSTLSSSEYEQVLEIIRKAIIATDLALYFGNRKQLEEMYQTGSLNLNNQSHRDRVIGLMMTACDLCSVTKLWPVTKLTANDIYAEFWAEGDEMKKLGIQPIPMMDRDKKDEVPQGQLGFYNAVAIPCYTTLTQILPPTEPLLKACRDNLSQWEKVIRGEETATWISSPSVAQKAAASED

pKi: 9.10
SMILES: COc1ccc(-n2c(CCN3C(=O)c4cccc(OCC(F)(F)F)c4C3=O)nc3ccccc3c2=O)cc1
